Assay results: PMC6013488, “A widely-applicable high-throughput cellular thermal shift assay (CETSA) using split Nano Luciferase” (Scientific Reports, 2018)
Where a name gives a salt, the structure may show the parent alone. Read-outs that look alike come from different tables or passages of the source.

What was measured:
[1] = target: T1, CDK9-86b (Homo sapiens, UniProt P50750); experiment: SplitLuc CETSA of CDK9-86b; format: cell-based; details: 45 °C for 3.5 min, 96-well PCR plate
T1 construct: Size (a.a., untagged); expressed in transfected cells; host or cells: HEK293T
Experimental: For CDK9, 2 µg of DNA per well was used. After 24 h (48 h for CDK9), cells were harvested by trypsinization and resuspended at 1 × 10^6 cells/mL (unless otherwise indicated) in CETSA buffer containing DPBS (with CaCl2 and MgCl2) plus 1 g/L glucose, 1X Halt protease inhibitor cocktail (ThermoFisher), and 0.5% DMSO (DMSO was not added for experiments that received subsequent compound and vehicle treatment). For temperature range experiments (without compound or single dose), samples were aliquoted to PCR strips at 30 µL per tube. […] Samples were then heated for 3.5 min using a pre-heated thermal cycler, allowed to equilibrate to room temperature, and 6 µL of 6% NP40 was added to each well. […] 11S (GenScript) and furimazine substrate (from Nano-Glo Luciferase Assay System, Promega) were added, at final concentrations of 100 nM and 0.5X, respectively, and samples were analyzed for luminescence intensity using a ViewLux High-throughput CCD imager (Perkin Elmer) equipped with clear filters.
Cells were transfected and harvested as above (384-well protocol). Cells were dispensed (5 µL cell/well) into 1,536-well white plates (Aurora, cyclic olefin polymer, cat# EWB041000A) using a Multidrop Combi. […] One µL of 6% NP40 was added per well and plates were incubated for 30 min to allow cell lysis followed by addition of 3 µL 11S (final concentration 100 nM) and furimazine substrate. Plates were centrifuged and analyzed for luminescence intensity using a ViewLux reader. For the LDHA and CDK9 screens, a final concentration of 0.5X and 0.25X furimazine was used, respectively. Normalization controls include DMSO and GSK2837808A-treated samples or unheated samples for LDHA and CDK9, respectively. […] Subsequently, 500 pM (final) of 86b was added to the wells, followed by addition of 100 nM 11S and 0.25X furimazine substrate (final).

[2] = target: T2, CDK9/cyclin K (Homo sapiens, UniProt P50750); experiment: TR-FRET Lanthascreen Eu Kinase Binding assay; details: for Curve Class: classifies curves by quality of fit, efficacy and number of asymptotes; for Efficacy: difference between highest and lowest activity across concentration range; for Efficacy / Max Resp: in %
T2 construct: purchased Invitrogen (ThermoFisher) PV4335
Description: The TR-FRET Lanthascreen Eu Kinase Binding assay for CDK9/cyclin K was purchased from ThermoFisher and performed as per manufacturer instructions.

[3] = concentration at which half maximal activity is observed, 7-point qHTS, read-out: AC50

T2 sequence (P50750 whole entry): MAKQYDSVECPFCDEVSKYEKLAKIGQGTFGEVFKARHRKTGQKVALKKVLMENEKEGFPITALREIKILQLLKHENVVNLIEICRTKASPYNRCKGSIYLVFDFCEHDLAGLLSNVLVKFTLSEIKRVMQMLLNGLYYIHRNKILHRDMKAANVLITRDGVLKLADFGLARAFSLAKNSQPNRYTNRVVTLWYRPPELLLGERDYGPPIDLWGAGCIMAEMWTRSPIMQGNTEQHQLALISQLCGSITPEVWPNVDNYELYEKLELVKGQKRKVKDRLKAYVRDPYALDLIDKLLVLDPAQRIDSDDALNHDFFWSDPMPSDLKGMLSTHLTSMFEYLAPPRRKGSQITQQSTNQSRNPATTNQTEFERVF
T2 sequence (O75909 whole entry partner): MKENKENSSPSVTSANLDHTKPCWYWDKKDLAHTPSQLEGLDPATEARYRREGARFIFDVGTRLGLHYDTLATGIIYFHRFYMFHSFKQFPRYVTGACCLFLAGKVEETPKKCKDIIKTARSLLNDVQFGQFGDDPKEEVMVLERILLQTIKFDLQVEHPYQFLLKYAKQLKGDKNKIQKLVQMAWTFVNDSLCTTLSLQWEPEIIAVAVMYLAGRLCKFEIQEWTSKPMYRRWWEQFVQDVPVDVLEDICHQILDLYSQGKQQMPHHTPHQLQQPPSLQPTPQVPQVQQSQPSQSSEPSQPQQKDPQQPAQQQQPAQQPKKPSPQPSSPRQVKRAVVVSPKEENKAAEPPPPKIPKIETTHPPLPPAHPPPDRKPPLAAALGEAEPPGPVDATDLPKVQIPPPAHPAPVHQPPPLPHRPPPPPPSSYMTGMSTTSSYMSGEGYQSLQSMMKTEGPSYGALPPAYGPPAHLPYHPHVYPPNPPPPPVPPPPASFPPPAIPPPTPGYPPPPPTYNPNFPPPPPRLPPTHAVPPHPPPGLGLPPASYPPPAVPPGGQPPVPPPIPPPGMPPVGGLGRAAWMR
T1 sequence (P50750 whole entry): as the sequence (P50750 whole entry) above

Structure (SMILES)	stabilization of CDK9-86b in follow-up experiments [1]	Curve Class [2]	Efficacy [2]	Max Resp [2]	AC50 ([2]; AC50, concentration at which half maximal activity is observed, 7-point qHTS) [µM]	AC50 [2, 3] [µM]	Log AC50 (M) ([2]; logarithm of AC50)	AC50 ([2]; logarithm of AC50, read-out: Log AC50 (converted)) [µM]
COc1cc(F)ccc1-c1ncnc(Nc2cccc(C[S+](C)(=N)[O-])c2)n1 (stereo not drawn) [BAY-1143572]	stabilize	-1.2	-55.3	-100.3	–	–	–	–
CN1C/C=C/CCOc2cccc(c2)-c2ccnc(n2)Nc2cccc(c2)C1 [SB1317]	stabilize	5	-6.2	-95.8	–	–	–	–
NC(=O)c1ccccc1Nc1ccnc(Nc2cccc(O)c2)n1 [DB07268]	–	-1.1	-100.7	-97.2	–	–	–	–
O=C(NCCCNc1nc(Nc2cccc(NC(=O)N3CCCC3)c2)ncc1I)c1cccs1 [BX-795 hydrochloride]	–	-1.1	-99.6	5.8	–	–	–	–
CN(C)c1nc2c(Br)c(Br)c(Br)c(Br)c2[nH]1 [DMAT]	–	-1.1	-84.2	-94.6	–	–	–	–
Nc1nc(NCCNc2ncc(-n3ccnc3)c(-c3ccc(Cl)cc3Cl)n2)ccc1[N+](=O)[O-] [CHIR98014]	–	-1.1	-87.0	-80.6	0.134	–	–	–
CC(C)Oc1cc(Nc2nc(N[C@@H](C)c3ccc(F)cn3)ncc2Cl)n[nH]1 [AZ 23]	–	-1.2	-76.1	-97.4	–	–	–	–
CCCCNc1ncc(C(=O)NCc2ccc(-n3ccnc3)cc2)c(NC2CCC(O)CC2)n1 (stereo in doubt) [UNC2881]	–	-1.1	-93.2	-99.2	–	–	–	–
COc1ccc(F)c(F)c1C(=O)c1cnc(NC2CCN([S+](C)(=O)[O-])CC2)nc1N [Compound R547, R547]	–	5	-13.4	-94.3	–	–	–	–
O=C1Cc2c([nH]c3ccc([N+](=O)[O-])cc23)-c2ccccc2N1 [Alsterpaullone]	–	-1.1	-82.6	-92.4	–	–	–	–
Cc1cc(Nc2cc(NC(=O)c3c(Cl)cccc3Cl)ccn2)nc(N)n1 [RO495]	–	-1.1	-93.8	-99.1	–	–	–	–
C[S+](=O)([O-])N1CCC(NC(=O)c2[nH]ncc2NC(=O)c2c(Cl)cccc2Cl)CC1 [NVP-LCQ195]	–	-1.2	-72.2	-98.8	–	–	–	–
CC(=O)c1cnc2ccc(-c3cc(Cl)c(O)c(Cl)c3)nc2c1N[C@H]1CC[C@H](CN(C)C)CC1 [OTSSP167]	–	-1.1	-82.5	-98.5	–	–	–	–
NS(=O)(=O)c1ccc(NN=C2C(=O)Nc3ccc(Br)cc32)cc1 [Cdk2 Inhibitor II]	–	-1.2	-67.2	-64.7	–	–	–	–
O=C(Nc1c[nH]nc1-c1nc2ccc(CN3CCOCC3)cc2[nH]1)NC1CC1 [AT9283]	–	-1.1	-93.9	-97.0	–	–	–	–
O=C1Nc2ccc3ncsc3c2/C1=C/c1c[nH]cn1 [Compound C16, C16]	–	-1.2	-77.3	-68.5	–	–	–	–
COc1ccc(CNc2nc(N(CCO)CCO)nc3c2ncn3C(C)C)cc1 [CVT-313]	–	-1.1	-101.1	-99.9	–	0.532	–	–
Cc1ccc([N+](=O)[O-])cc1[S+](=O)([O-])N(C)/N=C/c1cnc2ccc(Br)cn12 [NCGC00346500-05, PIK-75]	–	5	-24.5	-95.2	–	–	–	–

Structure (SMILES)	stabilization of CDK9-86b in follow-up experiments [1]	Curve Class [2]	Efficacy [2]	Max Resp [2]	AC50 ([2]; AC50, concentration at which half maximal activity is observed, 7-point qHTS) [µM]	AC50 [2, 3] [µM]	Log AC50 (M) ([2]; logarithm of AC50)	AC50 ([2]; logarithm of AC50, read-out: Log AC50 (converted)) [µM]
CN1CCN(Cc2ccc(Nc3ncc(Cl)c(Nc4ccccc4S(=O)(=O)N(C)C)n3)cc2)CC1 [TP-0903]	–	-1.2	-74.0	-96.9	–	0.0687	–	–
Oc1cc(CNC(=S)/C=C/c2cc(O)c(O)c(Br)c2)cc(O)c1O [NT 157]	–	-1.4	-60.3	-8.3	–	–	–	–
COc1ccccc1-c1c[nH]c2ncc(-c3cncc(C(=O)N(C)C)c3)cc12 [PPY A]	–	-1.1	-90.1	-95.0	–	–	–	–
CN(C)CCCn1cc(C2=C(c3c[nH]c4ccccc34)C(=O)NC2=O)c2ccccc21 [GF109203X]	–	-1.2	-69.1	-74.0	–	–	–	–
CN[C@@H]1C[C@H]2O[C@@](C)([C@@H]1OC)n1c3ccccc3c3c4c(c5c6ccccc6n2c5c31)C(=O)N[C@H]4O [UCN-01]	–	-1.1	-83.5	-93.0	–	–	–	–
O=C(Nc1nc2ccccc2n1CCN1CCOCC1)c1cccc([N+](=O)[O-])c1 [IRAK-1-4 Inhibitor I]	–	-1.2	-75.6	–	–	–	–	–
Nc1ncnc2c1c(I)cn2[C@@H]1O[C@H](CO)[C@H](O)C1O (stereo partly drawn) [5-Iodotubercidin]	–	-1.1	-92.5	-99.1	–	–	–	–
C1=C/COCc2cc(ccc2OCCN2CCCC2)Nc2nccc(n2)-c2cccc(c2)COC/1 [Pacritinib]	–	-1.2	-64.6	-95.3	–	–	–	–
COc1ccccc1-c1cc(Nc2cccc(C[S+](N)(=O)[O-])c2)ncn1 [LDC000067]	–	-1.1	-96.3	-94.5	–	–	–	–
O=C1Cc2c([nH]c3ccc(Br)cc23)-c2ccccc2N1 [Kenpaullone]	–	-1.1	-80.5	-37.7	–	0.336	–	–
Cc1ccc([N+](=O)[O-])cc1[S+](=O)([O-])N(C)/N=C\c1cnc2ccc(Br)cn12 [NCGC00387028-01, PIK-75]	–	5	0.0	-93.4	–	–	–	–
CC[C@H](CO)Nc1nc(NCc2ccccc2)c2ncn(C(C)C)c2n1 [Roscovitine]	–	-1.1	-100.3	-97.7	–	–	–	–
CC(=O)N1CCN(C(=O)Cc2ccc(Nc3ncc(F)c(Nc4ccc(C(=O)Nc5ccccc5Cl)cc4)n3)cc2)CC1 [Aurora A inhibitor II]	–	-1.1	-82.6	-83.7	–	0.947	-6.0	–
O=C1NCCSc2c1sc1ccc(O)cc21 [kb-NB142-70]	–	-1.1	-82.7	-91.1	–	–	–	–
Oc1ccc(-c2ccc(-c3cc(Nc4cccc(CNC5CC5)c4)[nH]n3)cc2)c(O)c1 [TCS-2312]	–	-1.1	-85.0	-94.1	–	–	–	–
COc1ccc(F)cc1-c1cc(NC(=O)[C@@H]2CCCNC2)ncc1Cl [CDK-IN-2]	stabilize	5	0.0	-98.0	–	–	–	–
COc1ccc(-c2oc3ncnc(N)c3c2-c2ccc(NC(=O)Nc3cc(C(F)(F)F)ccc3F)cc2)cc1 [GW768505A]	–	-1.1	-85.9	-78.2	–	–	–	0.631
O=C(NC1CCNCC1)c1[nH]ncc1NC(=O)c1c(Cl)cccc1Cl [AT7519]	–	5	-14.9	-96.9	–	–	–	–
